In US20080200405A1, “Drug Resistance Reversal In Neoplastic Disease” (priority 2007, published 2008):
Where two headings read alike, the source gives them in different places.

What was measured:
lens endothelial cells = details: in vitro; cited from earlier work
[1] = tested on: selenite induced cataract; assay: Selenite induced cataract in mice; details: mouse, in vivo
Text: In addition, as mentioned above, there is no precedent for the prevention of growth factor-induced angiogenesis by either TEMPOL or hydroxylamines.

mouse V79 cells = details: cited from earlier work
[2] = tested on: H2O2-induced angiogenesis in the CAM model; assay: H2O2-induced angiogenesis in the CAM model; type: in vivo, chicken; details: for Branch pts ± SEM: H2O2 88 μM, 30 ng
Protocol: (§1) In vivo neovascularization was examined by the method previously described by Auerbach et al. (J. Dev. Biol. 41:391-394 (1974)). Ten-day old chicken embryos were purchased from Spafas, Inc. (Preston, Conn.) and were incubated at 37° C. with 55% relative humidity. In the dark, with the aid of a candling lamp, a small hole was punctured in the shell concealing the air sac with a hypodermic needle. A second hole was punctured in the shell on the broadside of the egg directly over an […] portion of the embryonic membrane, as observed during candling. An artificial air sac was created beneath the second hole by applying gentle vacuum to the first hole using a small rubber squeeze bulb. The vacuum caused the chorioallantoic membrane (CAM) to separate from the shell.
A pro-angiogenic agent was added to induce new blood vessel branches on the CAM of 10-day old embryos. Filter disks of #1 filter paper (Whatman International, United Kingdom) were punched using a small puncher and were soaked in 3 mg/mL cortisone acetate (Sigma, St. Louis, Mo.) in a solution (95% ethanol and water). The disks were subsequently air dried under sterile conditions. The disks were then suspended in PBS (Phosphate Buffered Saline) and placed on growing CAMs. Filters treated with TP-H (TEMPOL-H) or TEMPOL and/or H2O2 or TP-H and/or bFGF or VEGF were placed on the first day of the 3-day incubation.
(§2) The number of vessel branch points contained in a circular region equal to the area of a filter disk was counted for each section. Percent inhibition data are expressed as the quotient of the experimental value minus the negative control value divided by the difference between the positive control value and the negative control value. One image was counted in each CAM preparation, and findings from eight CAM preparations were analyzed for each treatment condition. In addition, each experiment was performed three times. The resulting angiogenesis index is the mean ±SEM (Standard Error of Measurement) of new branch points in each set of treatment. Statistical analysis of blood vessel branching patterns are performed by 1-way analysis of variance (ANOVA) comparing experimental with corresponding control groups. Statistical significance differences are assessed at P value of <0.05.
TP-H (TEMPOL-H, the hydroxylamine reduced form of the nitroxide 4-hydroxy-2,2,6,6-tetramethylpiperidin-1-yloxy) or TEMPOL (4-hydroxy-2,2,6,6-tetramethylpiperidine-N-oxyl radical) was applied to the CAM model study to determine its respective anti-angiogenesis effects according to the materials and methods provided in Example 1. H2O2 was used to induce angiogensis in the CAM model.

[3] = tested on: Human whole blood clot formation; details: for Clot Strength - MA / Time to Clot Initiation R: TEG, human whole blood
Protocol: TEG: Human whole blood (±drugs) was added to the cylindrical cuvette (“cup”). […] The cup oscillates 4°45′ ( 1/12 radian) in either direction every 4.5 seconds, with a 1-second mid-cycle stationary period, resulting in a frequency of 0.1 Hz and a maximal shear rate of 0.1 per second. The pin was suspended by a torsion wire that acts as a torque transducer. […] The torque experienced by the pin (relative to the oscillation of the cup) was plotted as a function of time (Forsythe, S. A. M. S. K. M. S. (2000): “Comparative In Vitro Efficacy of Different Platelet Glycoprotein IIb/IIIa Antagonists on Platelet-Mediated Clot Strength Induced by Tissue Factor With Use of Thromboelastography.” Arteriosclerosis, Thrombosis, and Vascular Biology 20: 1162).
(Data represent mean ±SD, n=6 (blood form normal healthy volunteers), *P<0.01 as compared to control)

Lipid peroxidation = Lipid peroxidation inhibition (method of Ohkawa); type: biochemical
[4] = tested on: Doxorubicin resistant SaOS2 cells; assay: Cancer cell viability (MTT) in the presence or absence of doxorubicin; type: cell-based, human; details: compound 50 ug/mL, 3 days
TNFα = assay: Measurement of LPS Induced-TNFα in THP-1 Cells; type: cell-based, human; details: Homo sapiens, THP-1
[5] = tested on: doxorubicin-sensitive and doxorubicin-resistant cells (osteosarcoma, breast cancer, neuroblastoma); assay: Evaluation of chemoresistance, Compound 4 alone or combined with doxorubicin; type: cell-based, human
Protocol: A method for evaluating a compound's propensity to overcome cancer cell chemoresistance is described in “Caspase Inhibition Switches Doxorubicin-Induced Apoptosis To Senescence”, Abdelhadi Rebbaa, Xin Zheng, Pauline M Chou and Bernard L Mirkin, Oncogene (2003) 22, 2805-2811. Human neuroblastoma SKN-SH cells (ATCC Cat. No. HTB-11) were cultured in Dulbecco's Modified Eagles Medium (DMEM; Gibco, Grand Island, N.Y.) supplemented with 10% fetal bovine serum (FBS; Sigma-Aldrich, St. Louis, Mo.) at 37° C. in a 95% Air/5% CO2 atmosphere. Resistant human cancer cells to doxorubicin were selected by stepwise exposure to drug concentrations ranging from 10^−9M-10^−6M over 3 months. They were then subjected to treatment with the doxorubicin alone or in combination with hydroxylamine compounds. The cells were incubated with the drugs for 72 hours, and cell viability was measured by the MTT assay. This consists of adding 10 μl/well of MTT (5 mg/ml solution) and incubation for 4 h at 37° C. The precipitate formed is then solubilized by addition of 100 μl of HCL 0.5 N/Isopropanol and incubation for 15 hours at 37° C. The optical density is measured at 570 nm and cell survival is estimated by comparison to untreated cells. Each point represents 4 wells data represent average +/−SE. Additionally, molecular pathways that might be associated with increased chemo-responsiveness with these compounds were investigated.
Cytotoxic activity of doxorubicin and hydroxylamine analogs were quantitatively determined by a colorimetric assay utilizing 3-(4,5-dimethyl-2-thiazolyl) 2,5-diphenyl tetrazolium bromide (MTT; Sigma-Aldrich, St. Louis, Mo.). Briefly, cells were seeded at 10^4 cells/well in 96-well plates and maintained in culture for 24 hours at 37° C. in DMEM supplemented with 10% FBS. […] The optical density of this solution was measured at 570 nm and the percentage of viable cells estimated by comparison with untreated control cells.

[6] = tested on: bFGF-induced angiogenesis in the CAM model; assay: bFGF (FGF2)-stimulated CAM model; type: in vivo, chicken; details: bFGF/FGF2 1 ug, 30 ug injected
Protocol: as §1
For inducing angiogenesis, sterile filter disks were saturated with bFGF (1 μg/ml) (Life Technologies, Gaithersburg, Md.) or other pro-angiogenesis factors and control disks were saturated with PBS without Calcium and Magnesium. Control disks were saturated with PBS without Calcium and Magnesium.
After 24-48 hr, 10-25 ul of test agent was injected intravenously or added topically into the CAM membrane. Eight-Ten eggs/treatment group were used.
as §2
The CAM model protocol was modified to include stimulus with bFGF. The effect of injected OT 551 was assayed.
TP-H was applied to the CAM model study to determine its respective anti-angiogenesis effects according to the materials and methods provided in Example 1. Basic Fibroblast Growth Factor (bFGF) was used to induce angiogenesis in the CAM model.
Compounds were introduced via injection to the CAM model study to determine its respective anti-angiogenesis effects according to the materials and methods provided in Example 1. bFGF was used to induce angiogenesis in the CAM model.

[7] = Bevacizumab 1 ng/cup + Comp. 4 1 uM
[8] = Bevacizumab 1 ng/cup + Comp. 4 10 uM
[9] = Ranibizumab 1 ng/cup + Comp. 4 1 uM
[10] = Ranibizumab 1 ng/cup + Comp. 4 10 uM

CC1(C)CC(O)CC(C)(C)N1[O] [TEMPOL, 4-hydroxy-2,2,6,6-tetramethylpiperidine-N-oxyl radical, reference compound]
prevention of X-ray radiation damage to lens endothelial cells (lens endothelial cells): prevented X-ray radiation damage | prevention of selenite induced cataract [1]: not effective | radioprotection of mouse V79 cells (mouse V79 cells): concentration dependent | Branch pts ± SEM ([2]; 100 μg): 152.2 ± 18.8 | Branch pts ± SEM ([2]; 200 μg): 151.8 ± 12.5 | Branch pts ± SEM ([2]; 400 μg): 150.0 ± 7.7 | Branch pts ± SEM ([2]; 800 μg): 122.8 ± 3.0 | inhibition of angiogenesis induced by super-maximal concentrations of H2O2 ([2]; in vivo): effectively inhibited

CC1(C)CC(Oc2nsnc2N2CCOCC2)CC(C)(C)N1O.Cl [Compound 4, 4-(4-(2,2,6,6-tetramethylpiperidin-1-hydroxyl-4-yloxy)-1,2,5-thiazol-3-yl)morpholine hydrogen chloride]
Clot Strength - MA [3, 7]: 9.6 ± 2.3 mm | Time to Clot Initiation R [3, 7]: 14.3 ± 2.2 min | Clot Strength - MA [3, 8]: 5.0 ± 1.2 mm | Time to Clot Initiation R [3, 8]: 21.3 ± 4.2 min | Clot Strength - MA [3, 9]: 6.7 ± 1.5 mm | Time to Clot Initiation R [3, 9]: 16.8 ± 1.7 min | Clot Strength - MA [3, 10]: 2.7 ± 0.7 mm | Time to Clot Initiation R [3, 10]: 23.3 ± 2.3 min | effect on clot formation with Bevacizumab/Ranibizumab ([3]; compound 4 at 1 ug and 10 ug): delayed the clot formation | % Lipid Peroxidation inhibition (at 1 uM) (Lipid peroxidation; 1 uM): 87.0% | Lipid Peroxidation Inhibition, % Inhibition (Lipid peroxidation; 10 uM): 91.4% | Mean OD (×10^−3), MTT viability ([4]; Dox. 10^−6 M (+)): 88.00 ×10^−3 | Mean OD (×10^−3), MTT viability ([4]; absence of Dox. (−)): 468.50 ×10^−3 | inhibition at 10 µM (TNFα; compound 10 uM, 5 ng/mL LPS, read-out: Mean Percent Inhibition of TNF-alpha using 5 ng/mL LPS): 61 ± 10% | IC50 (TNFα; read-out: TNFalpha IC50): 6.7 µM | underlying mechanism (cell cycle arrest, apoptosis markers) [5]: increased expression of p21/WAF1 and caspase-3 activation | reversal of drug resistance ([5]; combined with doxorubicin, osteosarcoma, breast cancer, neuroblastoma): strong ability to reverse drug resistance | killing of cells, compound alone ([5]; doxorubicin-sensitive and doxorubicin-resistant cells): enhanced the killing of both doxorubicin-sensitive (P<0.001) and doxorubicin-resistant cells | inhibition in vivo at 0.03 mg ([6]; Gallus gallus, read-out: % Inhibition ± SEM): 92.8 ± 16.5% | Branch pts ± SEM [6]: 72.3 ± 12.2
